Experimental findings from PubChem BioAssay (NCI) are described below.

Each structure is given as a SMILES string.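 Exposure lasted 48 hours, with cells grown in 96-well plates and compounds tested at five concentrations. At the TGI there is no net growth.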

Holding throughout (test): inhibition of tumour cell growth, NCI panel, 48 h
Assay [1] concerns 786-0 renal.
The test system of assay [2] is A549 NSCLC.
Assay [3] relates to COLO 205 colon.
Assay [4] has as its system DU-145 prostate.
The test system of assay [5] is HCT-116 colon.
Assay [6] deals with IGROV1 ovarian.
In assay [7] the test system is LOX IMVI melanoma.
Assay [8] concerns MDA-MB-231 breast.
Assay [9] deals with MDA-N.
Assay [10] relates to NCI-H522 lung.
For assay [11], the system named is OVCAR-5 ovarian.
The subject of assay [12] is OVCAR-8 ovarian.
In assay [13] the test system is PC-3 prostate.
Assay [14] has as its system RXF 393 renal.
For assay [15], the system named is SF-295 CNS.
In assay [16] the test system is SK-MEL-2 melanoma.
Assay [17] concerns SN12C renal.
Assay [18] deals with U251 CNS.
The subject of assay [19] is UACC-257 melanoma.

Turning to `COCn1c(=O)n(C)c(=O)c2c1nc1c(c(=O)n(C)c(=O)n1COC)[n+]2[O-]`, the TGI in assay [1] is more than 100 µM; in [2] it was 91.2 µM; in [3] it was 31.8 µM; in assay [4], 94.9 µM; in [5] it was 39.5 µM; in assay [6], 48.9 µM. Also, the TGI was 27.7 µM in assay [7]; 44.4 µM in assay [8]; 76.9 µM in assay [9]; 44 µM in assay [10]; 97.2 µM in assay [11]; 45.1 µM in [12]. Further, the TGI in [13] amounted to 34.1 µM; in assay [14], 10.9 µM; in assay [15], 55.4 µM; in assay [16], 36.8 µM; in [17], 83.7 µM; in assay [18], 59.6 µM. In addition, the TGI in assay [19] was found to be 54.8 µM.

Consider `Nc1nc(Cl)cc(NCC2(CO)CC(CCCc3ccccc3)C2)n1` (stereo unspecified), for which the TGI in [1], in assay [2], in assay [3], in [4], in assay [5] and in [6] was more than 100 µM in each case. In addition, the TGI in [7], in assay [8], in assay [9], in assay [10], in [11] and in assay [12] was more than 100 µM each time. Also, the TGI in assay [13] was more than 100 µM; in [14], more than 78.2 µM; in [15], more than 100 µM; in assay [16] it was more than 100 µM; in assay [17], more than 100 µM; in [18] it was more than 100 µM. Besides, the TGI in [19] is more than 93.7 µM.

For `CCCCCCCCCCCCCCCCCCNc1ccn(C2OC(COP(=O)(O)OCC(COP(=O)(O)OCC3OC(n4cc(C)c(=O)[nH]c4=O)CC3N=[N+]=[N-])OCCCCCCCCCCCCCCCCCC)C(O)C2O)c(=O)n1` (stereo unspecified), the TGI in assay [1], in assay [2], in assay [3], in assay [4], in assay [5] and in assay [6] was more than 100 µM throughout. Moreover, the TGI in assay [7] was 54.2 µM; in [8], more than 100 µM; in [9], more than 100 µM; in [10] it was 96.5 µM; in [11], more than 100 µM; in assay [12], more than 100 µM. Also, the TGI was more than 100 µM in assay [13]; more than 100 µM in assay [14]; more than 100 µM in [15]; more than 100 µM in assay [16]; more than 100 µM in [17]; 27.8 µM in [18]. Moreover, in [19], the TGI is more than 100 µM.

As to `Cc1cccc(C)c1NC(=O)C(=O)C(c1ccccc1Cl)S(=O)(=O)Cc1ccccc1Cl` (stereo unspecified), the TGI in assay [1] is more than 71.7 µM; in [2], more than 100 µM; in assay [3] it was more than 100 µM; in [4] it was more than 100 µM; in assay [5], more than 100 µM; in assay [6] it was more than 100 µM. Further, the TGI was more than 100 µM in [7]; more than 73.4 µM in [8]; more than 100 µM in assay [9]; more than 100 µM in assay [10]; more than 100 µM in assay [11]; more than 69.6 µM in [12]. The TGI in assay [13] was more than 100 µM; in [14], 80.2 µM; in [15], more than 75.2 µM; in [16] it was more than 100 µM; in [17], more than 100 µM; in assay [18] it was more than 100 µM. For the same compound, the TGI in assay [19] is more than 100 µM.

As for `CC(=O)Oc1c(C)cc2c(c1C)C(C)(C)CN2C(=O)C(C)(C)C`, the TGI in assay [1], in assay [2], in assay [3], in [4], in [5] and in assay [6] was more than 100 µM each time. Further, the TGI in [7], in [8], in [9], in assay [10], in assay [11] and in [12] was more than 100 µM throughout. In addition, the TGI in assay [13], in assay [14], in assay [15], in assay [16], in assay [17] and in assay [18] was more than 100 µM in each case. The compound also registered a TGI in [19] of more than 100 µM.

As to `Nc1nc(N)c2c(CCc3ccc(C(=O)N[C@@H](CCC(=O)O)C(=O)O)cc3)ccnc2n1`, the TGI in [1], in assay [2], in assay [3], in assay [4], in [5] and in assay [6] was more than 100 µM each time. Moreover, the TGI in [7], in assay [8], in assay [9], in assay [10], in [11] and in assay [12] was more than 100 µM in each case. Moreover, the TGI in assay [13], in assay [14], in assay [15], in assay [16], in assay [17] and in [18] was more than 100 µM throughout. This compound showed a TGI in assay [19] of more than 100 µM.

Consider `Cc1cc(C)c(-n2c(C)c(C)c(C#N)c2N)c(C)c1`, for which the TGI is more than 100 µM in [1]; more than 100 µM in assay [2]; 38.9 µM in [3]; more than 100 µM in assay [4]; 48.9 µM in assay [5]; more than 100 µM in [6]. For the same compound, the TGI in [7] is 40.8 µM; in [8] it was more than 100 µM; in [9] it was more than 100 µM; in assay [10], 57.4 µM; in [11], more than 100 µM; in assay [12] it was more than 100 µM. The TGI in assay [13] is 89 µM; in assay [14] it was 94.8 µM; in assay [15], more than 100 µM; in [16], 51.7 µM; in assay [17] it was more than 100 µM; in assay [18], 49.7 µM. In addition, the TGI in [19] turned out to be 60.8 µM.

Take `COc1cc(/C=C2/CCCc3ccccc3C2=O)cc(OC)c1OC`: the TGI in [1] is more than 62 µM; in assay [2], more than 100 µM; in [3] it was more than 60.8 µM; in assay [4], more than 58.3 µM; in [5], more than 49.9 µM; in assay [6], more than 100 µM. Also, the TGI in assay [7] is more than 77 µM; in [8], more than 51.4 µM; in assay [9], more than 43.8 µM; in [10], 41 µM; in [11], more than 100 µM; in [12], more than 69.8 µM. For the same compound, the TGI is more than 59.3 µM in assay [13]; more than 100 µM in assay [14]; more than 57.6 µM in assay [15]; more than 55 µM in assay [16]; more than 51.4 µM in [17]; more than 88.4 µM in assay [18]. In assay [19], the TGI was more than 56.1 µM.

On to `Clc1ccc(C2ON=C(c3ccccc3)N2C23CC4CC(CC(C4)C2)C3)cc1Cl` (stereo unspecified), for which the TGI in assay [1], in assay [2], in assay [3], in assay [4], in [5] and in [6] was more than 10 µM each time. Further, the TGI in assay [7], in assay [8], in assay [9], in assay [10], in assay [11] and in assay [12] was more than 10 µM in each case. The TGI in [13], in [14], in assay [15], in assay [16], in assay [17] and in assay [18] was more than 10 µM each time. Moreover, in [19], the TGI was more than 10 µM.

Take `Cc1ccc2c(=O)cc(-c3cc4ccccc4s3)[nH]c2n1`: the TGI in [1], in assay [2], in assay [3], in assay [4], in [5] and in assay [6] was more than 100 µM throughout. Besides, the TGI in [7], in assay [8], in [9], in assay [10], in assay [11] and in [12] was more than 100 µM each time. Further, the TGI is more than 100 µM in [13]; 97.2 µM in [14]; more than 100 µM in [15]; more than 100 µM in assay [16]; more than 100 µM in assay [17]; more than 100 µM in assay [18]. For the same compound, the TGI in assay [19] is more than 100 µM.

Consider `O=c1[nH]c(=S)n(-c2cccc3ccccc23)c(O)c1/C=C1\C=Nc2ccccc21`, for which the TGI is 3.55 µM in assay [1]; 20.6 µM in assay [2]; 3.4 µM in [3]; 3.55 µM in [4]; 4.55 µM in assay [5]; 4.76 µM in assay [6]. The TGI was 3.81 µM in assay [7]; 5.14 µM in [8]; 4.63 µM in assay [9]; 10.2 µM in assay [10]; 5.47 µM in assay [11]; 6.86 µM in [12]. For the same compound, the TGI was 6.74 µM in assay [13]; 3.43 µM in [14]; 10.3 µM in assay [15]; 3.55 µM in [16]; 5.29 µM in [17]; 5.45 µM in assay [18]. Besides, the TGI in [19] stood at 5.51 µM.

For `Cc1nnc(N2C(=O)C(=Cc3ccc(Cl)cc3)N=C2c2ccc(Cl)cc2)nc1/C=C\c1ccc(N(C)C)cc1`, the TGI in assay [1], in [2], in assay [3], in assay [4], in [5] and in assay [6] was more than 100 µM in each case. For the same compound, the TGI in [7], in assay [8], in assay [9], in [10], in assay [11] and in assay [12] was more than 100 µM each time. Besides, the TGI in assay [13], in [14], in assay [15], in assay [16], in assay [17] and in assay [18] was more than 100 µM in each case. The compound further displayed a TGI in [19] of more than 100 µM.

As for `O=C1CCN=C(NC(=O)C(F)(F)F)N1CCc1c[nH]c2ccccc12`, the TGI in assay [1], in assay [2], in assay [3], in [4], in assay [5] and in assay [6] was more than 100 µM in each case. Besides, the TGI in assay [7], in [8], in assay [9], in assay [10], in assay [11] and in assay [12] was more than 100 µM each time. The TGI in assay [13], in assay [14], in assay [15], in assay [16], in assay [17] and in assay [18] was more than 100 µM throughout. The compound also displayed a TGI in assay [19] of more than 100 µM.

In the case of `COc1c(C(=O)/C(=N/Nc2cccc(Cl)c2)C(C)=O)c(O)c(OC)c2occc12`, the TGI in [1], in assay [2], in assay [3], in assay [4], in assay [5] and in [6] was more than 100 µM throughout. Moreover, the TGI in assay [7], in [8], in assay [9], in assay [10], in [11] and in assay [12] was more than 100 µM throughout. The TGI in assay [13], in [14], in [15], in assay [16], in [17] and in assay [18] was more than 100 µM throughout. The TGI in assay [19] is more than 100 µM.
